Here are results for one molecule from patent US20080051379A1, “Compositions and Methods for the Treatment of Peripheral B-Cell Neoplasms” (Trustees of Boston University, priority 2004, published 2008).

Type in all cases: cell-based, human
In test [1] the test system is cAMP levels in B-CLL cells. Description: cAMP RIA, B-CLL cells. The following applies: 10 μM rolipram for 30 minutes; six B-CLL patients; p<0.04. The method, then:
Leukemic cells from six B-CLL patients or CCRF-CEM cells were incubated for 30 minutes with media alone (CT), 10 μM rolipram (Roli), 10 μM forskolin (Fsk), 1 μM hydrocortisone (HC), or the same concentration of hydrocortisone combined with rolipram (Roli/HC) or forskolin (Fsk/HC). Lysates of the cells were then assayed for cAMP using a RIA. The cAMP level obtained from each treated B-CLL sample was normalized to that observed in the untreated leukemic cells. The CCRF-CEM data shown are representative of three experiments performed.
500,000 B-CLL or CCRF-CEM cells were incubated for 30 minutes in one mL media alone or with the addition of drugs. Cells were centrifuged and lysed in 80% ethanol. After vortexing and incubation on ice for 10 minutes, cellular debris was removed by re-centrifugation. The supernatant was dried in a Speedivac and the sample brought up in 250 μL of sample buffer as provided by the makers of a cAMP RIA kit (Amersham). 100 μL of this sample was used for each cAMP assay. The RIA kit was used according to the manufacturer's instructions.

Test [2] relates to GRE luciferase constructs transiently transfected into B-CLL cells. Description: GRE luciferase transactivation in B-CLL cells. As for the experimental part: (§1) B-CLL cells (FIG. 3A) or CCRF-CEM cells (FIG. 3B) were transiently transfected with a luciferase construct in which expression is regulated by GRE elements, followed by culture in 10 μM rolipram (R), 40 μM forskolin (Fsk), 1 μM hydrocortisone (HC), 1 mM Rp-8Br-cAMPS (Rp-8Br) or combinations of these agents. 12 hours after addition of the drugs, the relative luminescence of the samples was determined. The data shown are the mean of 8 experiments for B-CLL and two experiments for CCRF-CEM cells. The single asterisk denote a significant difference by paired student's t test between HC alone and either R/HC (FIG. 3A) or F/HC (FIG. 3B) (p<0.02). The double asterisk denotes a significant difference between Rp-8Br-cAMPS/HC and HC alone (p<0.02).
An MMTV GRE luciferase construct, originally created by Dr. R. Evans, was a gift from Dr. Remco Spanjaard (Dept. of Otolaryngology, Boston Medical Center)^29. 100 million B CLL cells in 200 μl of PBS were added to 500 μl of Nucleofector Solution D containing 30 μg of endotoxin-free (Qiagen) MMTV luciferase constructs. 100 μl was used per transfection using a Nucleofector electroporation instrument (Amaxa Biosystems, Koeln, Germany) using program U16. […] Up to six such aliquots of transfected cells were diluted in media and pooled, prior to distribution of 8 million cells/well in 48 well plates. Two hours after transfection, drugs, cytokines or vehicle alone were added to the transfected cells. 14 hours after transfection, samples were processed using a luciferase assay kit (Promega). Triplicate samples were analyzed with an MGM Instruments Optocomp I luminometer (Hamden, Conn.). Analysis of cell viability (trypan blue exclusion) and total protein (Pierce) verified that equivalent numbers of viable B-CLL cells were analyzed. 100 million CCRF-CEM cells were similarly transfected, cultured and analyzed except that Nucleofector program O17 was utilized. […] Data were analyzed using a two-sided paired t test for means.

Test [3] has as its system GRE luciferase construct in CCRF-CEM cells. The test can be described thus: GRE luciferase transactivation in CCRF-CEM cells. The following applies: 40 μM forskolin or 10 μM rolipram. The method, then: as §1
An MMTV GRE luciferase construct, originally created by Dr. R. Evans, was a gift from Dr. Remco Spanjaard (Dept. of Otolaryngology, Boston Medical Center)^29. […] Triplicate samples were analyzed with an MGM Instruments Optocomp I luminometer (Hamden, Conn.). Analysis of cell viability (trypan blue exclusion) and total protein (Pierce) verified that equivalent numbers of viable B-CLL cells were analyzed. 100 million CCRF-CEM cells were similarly transfected, cultured and analyzed except that Nucleofector program O17 was utilized. […] Data were analyzed using a two-sided paired t test for means.

`COc1ccc(C2CNC(=O)C2)cc1OC1CCCC1` (stereo not shown) [rolipram, 4-(3-cyclopentyloxy-4-methoxyphenyl)-2-pyrrolidone]: the “cAMP levels above that observed in untreated cells” value in test [1] is on record as 2.5±0.7 fold. In test [2] (10 μM rolipram + 1 μM hydrocortisone, 5 patients, p<0.02), the “augmentation of hydrocortisone-induced transactivation (average)” value was determined as 33%. For the same molecule, the “augmentation of GRE transactivation by rolipram itself” value in test [2] (10 μM rolipram alone, 7/8 experiments, not statistically significant (p<0.23)) is recorded as 10%. The “GRE transactivation as a single agent” value in test [3] was “none”.
